The record followed here is ChEMBL document CHEMBL1129417, “Glucose transport-enhancing and hypoglycemic activity of 2-methyl-2-phenoxy-3-phenylpropanoic acids” (1996).

Type in all cases: functional
The subject of assay [1] is Mus musculus. The assay can be described thus: compound was tested in vivo for hypoglycemic activity in 6-8 week old C57BL/6J ob/ob mouse at 50 mg/kg.
Assay [2] has as its system 3T3-L1. The assay is described as follows: compound was evaluated for their acute effects in vitro by measuring 2-Deoxyglucose (2DG) uptake in vehicle treated 3T3-L1 adipocytes at 100 uM dose.
Assay [3] is filed under the species Rattus norvegicus. The assay can be described thus: Compound was tested for inhibition of gluconeogenesis. The conditions noted are these: Rattus norvegicus; read-out: ED50.
Assay [4] has as its system L6. The assay can be described thus: compound was evaluated for their acute effects in vitro by measuring 2-Deoxyglucose (2DG) uptake in vehicle treated L6 […] at 60 uM dose.
Assay [5] concerns Mus musculus. The assay is described as follows: compound was tested in vivo for hypoglycemic activity in 6-8 week old C57BL/6J ob/ob mouse at 25 mg/kg.
The subject of assay [6] is Mus musculus. The assay is described as follows: compound was tested in vivo for hypoglycemic activity in 6-8 week old C57BL/6J ob/ob mouse at 10 mg/kg.
For assay [7], the system named is 3T3-L1. The assay can be described thus: compound was evaluated for their acute effects in vitro by measuring 2-Deoxyglucose (2DG) uptake in vehicle treated 3T3-L1 adipocytes at 30 uM dose.
Assay [8] has as its system 3T3-L1. The assay can be described thus: compound was evaluated for their acute effects in vitro by measuring 2-Deoxyglucose (2DG) uptake in vehicle treated 3T3-L1 adipocytes at 10 uM dose.
In assay [9] the test system is 3T3-L1. The assay can be described thus: compound was evaluated for their acute effects in vitro by measuring 2-Deoxyglucose (2DG) uptake in vehicle treated 3T3-L1 adipocytes at 60 uM dose.
The subject of assay [10] is 3T3-L1. The assay is described as follows: Acute effects in vitro by measuring 2-deoxyglucose (2DG) uptake in vehicle treated 3T3-L1 adipocytes at 30 uM dose.
For assay [11], the system named is 3T3-L1. The assay can be described thus: Acute effects in vitro by measuring 2-deoxyglucose (2DG) uptake in vehicle treated 3T3-L1 adipocytes at 10 uM dose.
For assay [12], the system named is Mus musculus. The assay can be described thus: compound was tested in vivo for hypoglycemic activity expressed as Glucose lowering relative to positive control in 6-8 week old C57BL/6J ob/ob mouse at 25 mg/kg.
In assay [13] the test system is 3T3-L1. The assay is described as follows: In vitro measurements of 2-Deoxyglucose (2DG) uptake in vehicle treated 3T3-L1 adipocytes at 60 uM dose.
Assay [14] is filed under the species Rattus norvegicus. The assay is described as follows: Inhibition of gluconeogenesis in rat.
Assay [15] relates to Mus musculus. The assay is described as follows: In vivo hypoglycemic activity expressed as glucose lowering relative to positive control in 6-8 week old C57BL/6J ob/ob mouse at 10 mg/kg.
For assay [16], the system named is 3T3-L1. The assay is described as follows: compound was evaluated for their acute effects in vitro by measuring 2-Deoxyglucose (2DG) uptake in vehicle treated 3T3-L1 adipocytes at 3 uM dose.
Assay [17] has as its system Mus musculus. The assay is described as follows: In vivo hypoglycemic activity expressed as glucose lowering relative to positive control in 6-8 week old C57BL/6J ob/ob mouse at 5 mg/kg.
For assay [18], the system named is 3T3-L1. The assay is described as follows: In vitro measurements 2-Deoxyglucose (2DG) uptake in vehicle treated 3T3-L1 adipocytes at 100 uM dose.
The test system of assay [19] is Mus musculus. The assay is described as follows: compound was tested in vivo for hypoglycemic activity expressed as Glucose lowering relative to positive control in 6-8 week old C57BL/6J ob/ob mouse at 2.5 mg/kg.
The subject of assay [20] is Mus musculus. The assay can be described thus: In vivo hypoglycemic activity expressed as glucose lowering relative to positive control in 6-8 week old C57BL/6J ob/ob mouse at 1 mg/kg. To be noted: 1 mg/kg.
Setting [21] is: Rattus norvegicus, read-out: ED50.

For orientation: ED50 means the dose that gives a 50% effect, or the effect in half of the subjects. With `C1CCC(NC2CCCCC2)CC1.CC(C)c1ccc(OC(Cc2ccc(Cl)c(Cl)c2)C(=O)O)cc1` (configuration not stated), the Hypoglycemic activity in [1] is given as 65%. In [2], this compound displayed a Basal uptake of 225%. Moreover, the ED50 in [3] is below 50 mg/kg.
For `C1CCC(NC2CCCCC2)CC1.CC(C)c1ccc(OC(Cc2cccc(Cl)c2)C(=O)O)cc1` (configuration not stated), in [1], the Hypoglycemic activity was 32%. This compound also returned a Basal uptake in assay [2] of 160%. For the same compound, the median effective dose (ED50) in assay [3] is above 50 mg/kg.
As to `C1CCC(NC2CCCCC2)CC1.CC(C)c1ccc(OC(Cc2ccccc2C(F)(F)F)C(=O)O)cc1` (configuration not stated), the Hypoglycemic activity in assay [1] is reported as below 0%. Besides, the Basal uptake in assay [2] is listed as 191%. Besides, in assay [3], the ED50 is above 50 mg/kg.
As to `C1CCC(NC2CCCCC2)CC1.CC(C)c1ccc(OC(CCc2ccc(Cl)cc2)C(=O)O)cc1` (configuration not stated), the Basal uptake in assay [4] and in assay [2] was 89% each time. In addition, the Hypoglycemic activity in [5] amounted to 64%. The ED50 in assay [3] is below 25 mg/kg.
`CC(C)c1ccc(SC(C)(Cc2ccc(Cl)cc2)C(=O)[O-])cc1.[Na+]` (configuration not stated) returned a Hypoglycemic activity in assay [6] of 31%. Moreover, the Basal uptake in assay [7] came to 119%; in [8], 83%; in [9] it was 187%. Also, the ED50 in [3] is above 10 mg/kg.
Take `Cc1ccc(OC(Cc2ccc(Cl)cc2)C(=O)O)cc1` (configuration not stated): the Basal uptake in [4] was 93%; in [10], 88%; in [11] it was 82%; in assay [13] it was below 100%. In [12], this compound had a Hypoglycemic activity of 33%. Besides, the ED50 in assay [14] (setting [21]) was above 25 mg/kg.
For the compound `CC(C)c1ccc(CC(C)(Oc2ccc(C(C)C)cc2)C(=O)[O-])cc1.[Na+]` (configuration not stated), the Basal uptake in assay [10] came to 93%; in assay [11], 97%; in assay [16], 97%. The results for the Hypoglycemic activity in [15] and in assay [17] were 93% and below 0%, respectively. The ED50 in assay [14] (setting [21]) turned out to be 5 mg/kg.
Turning to `O=C(O)C(Cc1ccc(Cl)cc1)Oc1ccccc1` (configuration not stated), the figures for the Basal uptake in assay [4] and in assay [13] were 86% and 100%, respectively. Further, the Hypoglycemic activity in [12] was below 0%. The ED50 in [14] (setting [21]) is above 25 mg/kg.
For `COc1ccc(OC(Cc2ccc(Cl)cc2)C(=O)O)cc1` (configuration not stated), the Basal uptake in [4] was 98%. Also, the Hypoglycemic activity in assay [12] came out at 23%. The ED50 in assay [14] (setting [21]) was above 25 mg/kg.
Turning to `CC(C)(C)c1ccc(OC(Cc2ccc(Cl)cc2)C(=O)O)cc1` (configuration not stated), the Basal uptake in assay [4] is 84%; in assay [10], 87%; in assay [11], 92%; in [13], below 100%. Also, the Hypoglycemic activity in assay [12] is given as 53%. The ED50 in [14] (setting [21]) is 25 mg/kg.
For `CC(C)c1ccc(OC(C)(Cc2ccc(Cl)cc2)C(=O)O)cc1` (stereo in doubt; 27), the Basal uptake in [18] turned out to be 214%. The Hypoglycemic activity in [19] is reported as 79%; in [17] (5 mg/kg) it was 65%; in assay [20] it was 36%. In [14], this compound showed an ED50 of 1 mg/kg.
With `CC(C)c1ccc(OC(C)(Cc2ccc(Cl)cc2)C(=O)O)cc1` (stereo in doubt; 28), the Basal uptake in assay [18] is 229%. The values for the Hypoglycemic activity in [19], in assay [17] (5 mg/kg) and in assay [20] were 88%, 100% and 47%, respectively.
